Laboratory results taken from US20230085307A1, “PYRIDAZINONE COMPOUND AND HERBICIDE” (NISSAN CHEMICAL CORPORATION, priority 2019, published 2023).

Columns and labels:
[1] = test system: lambsquarters; test: Test Example 5: herbicidal effect by foliage application, plastic box (Table 20, symbol O); assay type: in vivo, lambsquarters (Chenopodium album); details: foliage application, 320 g/ha; for effect on lambsquarters (O): 3 weeks after application
Summary of the method: (§1)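 Plants sown in sterilized diluvial soil and grown 14 days in a greenhouse at 25° C to 30° C, then sprayed on the foliage with the compound's emulsion diluted in water to a predetermined herbicide amount. Injury to weeds and crops scored three weeks after application on a visual rating scale.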

[2] = test system: Italian ryegrass; test: Test Example 4: herbicidal effect by soil treatment (Table 19, symbol K); assay type: in vivo, Italian ryegrass (Lolium multiflorum); details: for herbicidal effect rating, K: Italian ryegrass: 320 g/ha
Summary of the method: (§2)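 Three weeks of greenhouse growth at 25° C. to 30° C. followed a uniform surface spray of water-diluted emulsion at a predetermined herbicide amount. Seeds had been sown beforehand under about 1.5 cm of sterilized diluvial soil. Grading followed criteria set out in an earlier test.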

[3] = test system: blackgrass; test: Test Example 5: herbicidal effect by foliage application, plastic box (Table 20, symbol J); assay type: in vivo, blackgrass (Alopecurus myosuroides); details: foliage application, 320 g/ha; for effect on blackgrass (J): 3 weeks after application
Summary of the method: as §1

[4] = test system: late watergrass; test: Test Example 1: herbicidal activity, application before weed generation under submerged conditions (Table 16, symbol A); assay type: in vivo, late watergrass (Echinochloa oryzicola); details: 320 g/ha applied herbicide
Summary of the method: (§3)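 Submerged Wagner pots (alluvial soil, 4 cm water) sown with weed seeds and planted with 2.5-leaf rice seedlings; emulsifiable concentrate diluted in water applied to water surface on sowing day. Held in greenhouse at 25-30 °C; injury scored 0-5 by herbicidal rate after three weeks.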

[5] = test system: green foxtail; test: Test Example 5: herbicidal effect by foliage application, plastic box (Table 20, symbol G); assay type: in vivo, green foxtail (Setaria viridis); details: foliage application, 320 g/ha; for effect on green foxtail (G): 3 weeks after application
Summary of the method: as §1

[6] = test system: wild oat; test: Test Example 5: herbicidal effect by foliage application, plastic box (Table 20, symbol I); assay type: in vivo, wild oat (Avena fatua); details: foliage application, 320 g/ha; for effect on wild oat (I): 3 weeks after application
Summary of the method: as §1

[7] = test system: chickweed; test: Test Example 4: herbicidal effect by soil treatment (Table 19, symbol P); assay type: in vivo, common chickweed (Stellaria media); details: for herbicidal effect rating, P: chickweed: 320 g/ha
Summary of the method: as §2

[8] = test system: lambsquarters; test: Test Example 4: herbicidal effect by soil treatment (Table 19, symbol O); assay type: in vivo, lambsquarters (Chenopodium album); details: for herbicidal effect rating, O: lambsquarters: 320 g/ha
Summary of the method: as §2

[9] = test system: Japanese bulrush; test: Test Example 1: herbicidal activity, application before weed generation under submerged conditions (Table 16, symbol B); assay type: in vivo, Japanese bulrush (Schoenoplectus juncoides); details: 320 g/ha applied herbicide
Summary of the method: as §3

[10] = test system: windgrass; test: Test Example 4: herbicidal effect by soil treatment (Table 19, symbol L); assay type: in vivo, windgrass (Apera spica-venti); details: for herbicidal effect rating, L: windgrass: 320 g/ha
Summary of the method: as §2

[11] = test system: rice flat sedge; test: Test Example 3: herbicidal effect by foliage application, Wagner pot (Table 18, symbol E); assay type: in vivo, rice flat sedge (Cyperus iria); details: for herbicidal effect on E (rice flat sedge), rating 0-5: 320 g/ha
Summary of the method: (§4)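 Plants were sown in alluvial soil held under 0.1–0.5 cm standing water and grown 14 days in a greenhouse at 25–30 °C. An emulsifiable formulation, water-diluted to the set dose, was then sprayed onto the foliage, and effects were scored three weeks later using previously defined criteria.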

[12] = test system: southern crabgrass; test: Test Example 5: herbicidal effect by foliage application, plastic box (Table 20, symbol F); assay type: in vivo, southern crabgrass (Digitaria ciliaris); details: foliage application, 320 g/ha; for effect on southern crabgrass (F): 3 weeks after application
Summary of the method: as §1

[13] = test system: Chinese sprangletop; test: Test Example 3: herbicidal effect by foliage application, Wagner pot (Table 18, symbol D); assay type: in vivo, chinese sprangletop (Leptochloa chinensis); details: for herbicidal effect on D (Chinese sprangletop), rating 0-5: 320 g/ha
Summary of the method: as §4

[14] = test system: oval-leafed pondweed; test: Test Example 1: herbicidal activity, application before weed generation under submerged conditions (Table 16, symbol C); assay type: in vivo, oval-leafed pondweed (Monochoria vaginalis); details: 320 g/ha applied herbicide
Summary of the method: as §3

[15] = test system: Italian ryegrass; test: Test Example 5: herbicidal effect by foliage application, plastic box (Table 20, symbol K); assay type: in vivo, Italian ryegrass (Lolium multiflorum); details: foliage application, 320 g/ha; for effect on Italian ryegrass (K): 3 weeks after application
Summary of the method: as §1

[16] = test system: barnyard grass; test: Test Example 3: herbicidal effect by foliage application, Wagner pot (Table 18, symbol H); assay type: in vivo, barnyard grass (Echinochloa crus-galli); details: for herbicidal effect on H (barnyard grass), rating 0-5: 320 g/ha
Summary of the method: as §4

[17] = test system: velvetleaf; test: Test Example 5: herbicidal effect by foliage application, plastic box (Table 20, symbol M); assay type: in vivo, velvetleaf (Abutilon theophrasti); details: foliage application, 320 g/ha; for effect on velvetleaf (M): 3 weeks after application
Summary of the method: as §1

[18] = evaluated three weeks after application
[19] = amount of applied herbicide 320 g/ha

Compound | effect on lambsquarters (O) [1] | herbicidal effect rating, K: Italian ryegrass [2] | effect on blackgrass (J) [3] | Herbicidal effect on A: late watergrass (grade 0-5) [4] | effect on green foxtail (G) [5] | effect on wild oat (I) [6] | herbicidal effect rating, P: chickweed [7] | herbicidal effect rating, O: lambsquarters [8] | Herbicidal effect on B: Japanese bulrush (grade 0-5) [9] | herbicidal effect rating, L: windgrass [10] | herbicidal effect on E (rice flat sedge), rating 0-5 [11] | effect on southern crabgrass (F) [12] | herbicidal effect on D (Chinese sprangletop), rating 0-5 [13] | Herbicidal effect on C: oval-leafed pondweed (grade 0-5) [14] | effect on Italian ryegrass (K) [15] | herbicidal effect on H (barnyard grass), rating 0-5 [16] | effect on velvetleaf (M) [17] | further results
CCCC(=O)Oc1c(C)nn(C)c(=O)c1-c1c(-c2ccc(CC)cc2)sc2ccc(F)cc12 [2-016] | 5 (Herbicidal rate of 90% or more (almost completely withered)) | 3 (Herbicidal rate of 40% or more and less than 70%) | 1 (Herbicidal rate of 5% or more and less than 20%) | 5 (Herbicidal rate of 90% or more (almost completely withered)) | 0 (Herbicidal rate of 5% or less (almost no effect)) | 3 (Herbicidal rate of 40% or more and less than 70%) | 1 (Herbicidal rate of 5% or more and less than 20%) | 5 (Herbicidal rate of 90% or more (almost completely withered)) | 3 (Herbicidal rate of 40% or more and less than 70%) | 1 (Herbicidal rate of 5% or more and less than 20%) | 5 (Herbicidal rate of 90% or more (almost completely withered)) | 0 (Herbicidal rate of 5% or less (almost no effect)) | 5 (Herbicidal rate of 90% or more (almost completely withered)) | 5 (Herbicidal rate of 90% or more (almost completely withered)) | 5 (Herbicidal rate of 90% or more (almost completely withered)) | 5 (Herbicidal rate of 90% or more (almost completely withered)) | 5 (Herbicidal rate of 90% or more (almost completely withered)) | –
Cc1nn(C)c(=O)c(-c2c(-c3ccc(C(F)F)cc3)sc3ccc(F)cc23)c1O [2-227] | – | – | – | 3 (Herbicidal rate of 40% or more and less than 70%) | – | – | – | – | 0 (Herbicidal rate of 5% or less (almost no effect)) | – | – | – | – | 0 (Herbicidal rate of 5% or less (almost no effect)) | – | – | – | herbicidal effect on O: lambsquarters (criteria 0-5) [1, 18]: 5 (Herbicidal rate of 90% or more (almost completely withered)); herbicidal effect on K: Italian ryegrass [2, 19]: 4 (Herbicidal rate of 70% or more and less than 90%); herbicidal effect on J: blackgrass (criteria 0-5) [3, 18]: 3 (Herbicidal rate of 40% or more and less than 70%); herbicidal effect on G: green foxtail (criteria 0-5) [5, 18]: 4 (Herbicidal rate of 70% or more and less than 90%); herbicidal effect on I: wild oat (criteria 0-5) [6, 18]: 0 (Herbicidal rate of 5% or less (almost no effect)); herbicidal effect on P: chickweed [7, 19]: 5 (Herbicidal rate of 90% or more (almost completely withered)); herbicidal effect on O: lambsquarters [8, 19]: 5 (Herbicidal rate of 90% or more (almost completely withered)); herbicidal effect on L: windgrass [10, 19]: 0 (Herbicidal rate of 5% or less (almost no effect)); herbicidal effect on E: rice flat sedge [11, 19]: 5 (Herbicidal rate of 90% or more (almost completely withered)); herbicidal effect on F: southern crabgrass (criteria 0-5) [12, 18]: 5 (Herbicidal rate of 90% or more (almost completely withered)); herbicidal effect on D: Chinese sprangletop [13, 19]: 3 (Herbicidal rate of 40% or more and less than 70%); herbicidal effect on K: Italian ryegrass (criteria 0-5) [15, 18]: 4 (Herbicidal rate of 70% or more and less than 90%); herbicidal effect on H: barnyard grass [16, 19]: 5 (Herbicidal rate of 90% or more (almost completely withered)); herbicidal effect on M: velvetleaf (criteria 0-5) [17, 18]: 5 (Herbicidal rate of 90% or more (almost completely withered))
Cc1nn(C)c(=O)c(-c2c(-c3ccc(F)cc3)sc3ccc(F)cc23)c1O [2-001] | 5 (Herbicidal rate of 90% or more (almost completely withered)) | – | 4 (Herbicidal rate of 70% or more and less than 90%) | 2 (Herbicidal rate of 20% or more and less than 40%) | 5 (Herbicidal rate of 90% or more (almost completely withered)) | 5 (Herbicidal rate of 90% or more (almost completely withered)) | – | – | 3 (Herbicidal rate of 40% or more and less than 70%) | – | 5 (Herbicidal rate of 90% or more (almost completely withered)) | 5 (Herbicidal rate of 90% or more (almost completely withered)) | 5 (Herbicidal rate of 90% or more (almost completely withered)) | 1 (Herbicidal rate of 5% or more and less than 20%) | 5 (Herbicidal rate of 90% or more (almost completely withered)) | 5 (Herbicidal rate of 90% or more (almost completely withered)) | 5 (Herbicidal rate of 90% or more (almost completely withered)) | K: Italian ryegrass, herbicidal effect rating ([2]; AAH 320 g/ha): 4 (Herbicidal rate of 70% or more and less than 90%); P: chickweed, herbicidal effect rating ([7]; AAH 320 g/ha): 4 (Herbicidal rate of 70% or more and less than 90%); O: lambsquarters, herbicidal effect rating ([8]; AAH 320 g/ha): 5 (Herbicidal rate of 90% or more (almost completely withered)); L: windgrass, herbicidal effect rating ([10]; AAH 320 g/ha): 0 (Herbicidal rate of 5% or less (almost no effect))
COCCOc1ccc(-c2sc3ccc(F)cc3c2-c2c(O)c(C)nn(C)c2=O)cc1 [2-056] | – | 0 (Herbicidal rate of 5% or less (almost no effect)) | – | 3 (Herbicidal rate of 40% or more and less than 70%) | – | – | 5 (Herbicidal rate of 90% or more (almost completely withered)) | 5 (Herbicidal rate of 90% or more (almost completely withered)) | 5 (Herbicidal rate of 90% or more (almost completely withered)) | 0 (Herbicidal rate of 5% or less (almost no effect)) | 5 (Herbicidal rate of 90% or more (almost completely withered)) | – | 5 (Herbicidal rate of 90% or more (almost completely withered)) | 5 (Herbicidal rate of 90% or more (almost completely withered)) | – | 5 (Herbicidal rate of 90% or more (almost completely withered)) | – | herbicidal effect on O: lambsquarters [1, 18]: 5 (Herbicidal rate of 90% or more (almost completely withered)); herbicidal effect on J: blackgrass [3, 18]: 5 (Herbicidal rate of 90% or more (almost completely withered)); herbicidal effect on G: green foxtail [5, 18]: 5 (Herbicidal rate of 90% or more (almost completely withered)); herbicidal effect on I: wild oat [6, 18]: 4 (Herbicidal rate of 70% or more and less than 90%); herbicidal effect on F: southern crabgrass [12, 18]: 5 (Herbicidal rate of 90% or more (almost completely withered)); herbicidal effect on K: Italian ryegrass [15, 18]: 4 (Herbicidal rate of 70% or more and less than 90%); herbicidal effect on M: velvetleaf [17, 18]: 5 (Herbicidal rate of 90% or more (almost completely withered))
